Calls of active or inactive are those of the source.
How the values were obtained:
Leucine aminopeptidase = target: T1, Leucine aminopeptidase (Plasmodium falciparum 3D7, UniProt Q8IL11); test: P. falciparum M17LAP inhibitors, primary screen, biochemical, fluorogenic H-Leu-NHMec substrate, 1536-well (AID 1619); format: functional
T1 sequence (Q8IL11 whole entry): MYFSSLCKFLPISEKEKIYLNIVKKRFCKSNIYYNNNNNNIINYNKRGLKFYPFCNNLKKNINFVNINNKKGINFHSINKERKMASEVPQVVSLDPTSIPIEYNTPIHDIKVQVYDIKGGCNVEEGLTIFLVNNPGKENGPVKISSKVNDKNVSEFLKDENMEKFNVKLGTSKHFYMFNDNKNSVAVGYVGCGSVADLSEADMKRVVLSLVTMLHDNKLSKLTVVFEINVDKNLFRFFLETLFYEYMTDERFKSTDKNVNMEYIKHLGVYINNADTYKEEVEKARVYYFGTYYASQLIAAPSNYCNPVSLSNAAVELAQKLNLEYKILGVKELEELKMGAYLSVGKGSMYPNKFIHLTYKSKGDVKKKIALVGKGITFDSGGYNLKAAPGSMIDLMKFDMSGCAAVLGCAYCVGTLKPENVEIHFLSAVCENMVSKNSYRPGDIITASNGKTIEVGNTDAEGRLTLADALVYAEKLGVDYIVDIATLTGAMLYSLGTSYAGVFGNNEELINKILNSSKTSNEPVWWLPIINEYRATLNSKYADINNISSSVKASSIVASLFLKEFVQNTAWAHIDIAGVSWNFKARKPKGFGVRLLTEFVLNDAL

[1] = enhancers of respiration in Yfh1-depleted yeast, dose response, Friedreich's ataxia, plus single-dose screen (AID 1465); format: functional;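 further: yeast depleted of Yfh1p frataxin homolog grown on glycerol needing respiration; WST-1 tetrazolium dye reduction as measure of cellular dehydrogenase metabolic activity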
[2] = THP-1 cell cytotoxicity, dose response, cytotoxicity control for non-replicating M. tuberculosis project (AID 489025); format: functional
cells [3] = format: functional
[4] = Vero E6 cell cytotoxicity, dose response, cytotoxicity control for non-replicating M. tuberculosis project, secondary assay (AID 492998); format: functional, VeroE6; conditions: Vero C1008
[5] = target: T2, C-C chemokine receptor type 6 (Homo sapiens, UniProt P51684); test: CCR6 receptor antagonists, dose response, cell-based, luminescent beta-arrestin readout (AID 504728); format: functional
T2 sequence (P51684 whole entry): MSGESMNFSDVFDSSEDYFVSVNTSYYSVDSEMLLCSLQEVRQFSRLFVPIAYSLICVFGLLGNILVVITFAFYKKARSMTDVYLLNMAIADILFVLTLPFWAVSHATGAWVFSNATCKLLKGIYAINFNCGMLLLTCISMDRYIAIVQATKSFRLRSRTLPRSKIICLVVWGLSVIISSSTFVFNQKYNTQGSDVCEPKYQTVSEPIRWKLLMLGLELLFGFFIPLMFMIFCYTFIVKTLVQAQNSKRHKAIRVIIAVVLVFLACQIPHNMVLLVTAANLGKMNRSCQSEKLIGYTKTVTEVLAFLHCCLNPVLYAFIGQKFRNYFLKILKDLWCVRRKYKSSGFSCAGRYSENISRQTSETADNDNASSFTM

Beta-galactosidase = Beta-galactosidase (Escherichia coli, UniProt Q8VNN2); test: beta-galactosidase enzyme inhibitors and activators, dose response, artefact control for CCR6 antagonist project, biochemical, E. coli enzyme, set 3 (AID 504712); format: functional
[6] = target: Neurotensin receptor type 1 (Homo sapiens, UniProt P30989); format: functional;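 further: Image-based confirmatory dose-response assay measuring agonist activity at NTR1; NTR1-expressing U2OS osteosarcoma cells imaged for beta-arrestin GFP spot formation; agonist potency where compounds increase beta-arrestin recruitment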
Neurotensin receptor type 1, sequence (P30989 whole entry): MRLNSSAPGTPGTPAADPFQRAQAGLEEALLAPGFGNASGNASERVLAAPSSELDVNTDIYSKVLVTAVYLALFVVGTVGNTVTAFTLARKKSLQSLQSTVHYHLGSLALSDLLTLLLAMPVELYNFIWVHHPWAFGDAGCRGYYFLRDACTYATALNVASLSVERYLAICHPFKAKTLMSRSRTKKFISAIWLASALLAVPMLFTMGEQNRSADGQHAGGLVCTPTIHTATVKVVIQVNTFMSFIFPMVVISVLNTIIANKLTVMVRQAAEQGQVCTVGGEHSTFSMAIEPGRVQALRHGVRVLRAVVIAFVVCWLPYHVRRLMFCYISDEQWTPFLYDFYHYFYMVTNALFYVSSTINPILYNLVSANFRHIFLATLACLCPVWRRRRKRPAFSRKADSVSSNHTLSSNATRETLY

Hexokinase = target: T3, Hexokinase (Trypanosoma brucei, UniProt Q38C41); test: Confirmation assay for inhibitors of Trypanosoma brucei hexokinase 1-Analogue-first series. [Related pubchem assays (depositor defined):AID1430, AID1632, AID2516, AID2560, AID2579, AID2600, AID449725, AID492951]; format: functional
T3 sequence (Q38C41 whole entry): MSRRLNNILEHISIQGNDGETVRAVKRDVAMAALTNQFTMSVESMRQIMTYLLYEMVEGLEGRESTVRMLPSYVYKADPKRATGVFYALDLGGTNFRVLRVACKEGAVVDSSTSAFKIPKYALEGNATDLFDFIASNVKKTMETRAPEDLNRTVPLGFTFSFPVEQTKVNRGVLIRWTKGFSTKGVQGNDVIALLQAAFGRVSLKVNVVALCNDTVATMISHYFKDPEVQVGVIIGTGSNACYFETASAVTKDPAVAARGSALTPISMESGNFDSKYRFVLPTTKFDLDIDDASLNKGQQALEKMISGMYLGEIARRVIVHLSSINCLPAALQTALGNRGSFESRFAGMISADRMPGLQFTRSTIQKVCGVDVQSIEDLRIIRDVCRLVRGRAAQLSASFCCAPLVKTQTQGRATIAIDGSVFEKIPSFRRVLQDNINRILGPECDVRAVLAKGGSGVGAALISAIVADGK

[7] = target: T4, DNA dC->dU-editing enzyme APOBEC-3G (Homo sapiens, UniProt Q9HC16); format: functional
T4 sequence (Q9HC16 whole entry): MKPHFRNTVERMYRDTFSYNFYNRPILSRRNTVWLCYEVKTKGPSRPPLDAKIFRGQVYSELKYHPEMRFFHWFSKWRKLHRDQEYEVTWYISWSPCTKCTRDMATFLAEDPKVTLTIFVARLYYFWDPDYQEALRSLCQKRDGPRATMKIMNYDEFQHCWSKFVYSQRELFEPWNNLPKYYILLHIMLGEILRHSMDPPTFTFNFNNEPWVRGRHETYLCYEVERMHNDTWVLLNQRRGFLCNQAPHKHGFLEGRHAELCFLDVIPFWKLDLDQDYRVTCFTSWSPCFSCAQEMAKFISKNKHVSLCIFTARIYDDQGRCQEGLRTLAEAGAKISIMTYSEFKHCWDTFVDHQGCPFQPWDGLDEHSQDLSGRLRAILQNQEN

[8] = target: T5, DNA dC->dU-editing enzyme APOBEC-3A (Homo sapiens, UniProt P31941); test: Dose Response confirmation of small molecule APOBEC3A DNA Deaminase Inhibitors via a fluorescence-based single-stranded DNA deaminase assay. [Related pubchem assays (depositor defined):AID493011, AID493024]; format: functional
T5 sequence (P31941 whole entry): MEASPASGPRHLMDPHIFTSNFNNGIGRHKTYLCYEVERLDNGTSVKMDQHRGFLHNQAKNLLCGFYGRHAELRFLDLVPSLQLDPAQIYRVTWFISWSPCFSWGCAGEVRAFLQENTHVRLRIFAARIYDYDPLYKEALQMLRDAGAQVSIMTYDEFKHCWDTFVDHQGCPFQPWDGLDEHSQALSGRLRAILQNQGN

[9] = target: T6, Acyl-homoserine lactone acylase PvdQ (Pseudomonas aeruginosa (strain LESB58), UniProt Q9I194); test: P. aeruginosa PvdQ acylase inhibitors, dose response, biochemical, fluorescence, plate reader and imaging, cherry-picks (AID 493231)
T6 sequence (Q9I194 whole entry): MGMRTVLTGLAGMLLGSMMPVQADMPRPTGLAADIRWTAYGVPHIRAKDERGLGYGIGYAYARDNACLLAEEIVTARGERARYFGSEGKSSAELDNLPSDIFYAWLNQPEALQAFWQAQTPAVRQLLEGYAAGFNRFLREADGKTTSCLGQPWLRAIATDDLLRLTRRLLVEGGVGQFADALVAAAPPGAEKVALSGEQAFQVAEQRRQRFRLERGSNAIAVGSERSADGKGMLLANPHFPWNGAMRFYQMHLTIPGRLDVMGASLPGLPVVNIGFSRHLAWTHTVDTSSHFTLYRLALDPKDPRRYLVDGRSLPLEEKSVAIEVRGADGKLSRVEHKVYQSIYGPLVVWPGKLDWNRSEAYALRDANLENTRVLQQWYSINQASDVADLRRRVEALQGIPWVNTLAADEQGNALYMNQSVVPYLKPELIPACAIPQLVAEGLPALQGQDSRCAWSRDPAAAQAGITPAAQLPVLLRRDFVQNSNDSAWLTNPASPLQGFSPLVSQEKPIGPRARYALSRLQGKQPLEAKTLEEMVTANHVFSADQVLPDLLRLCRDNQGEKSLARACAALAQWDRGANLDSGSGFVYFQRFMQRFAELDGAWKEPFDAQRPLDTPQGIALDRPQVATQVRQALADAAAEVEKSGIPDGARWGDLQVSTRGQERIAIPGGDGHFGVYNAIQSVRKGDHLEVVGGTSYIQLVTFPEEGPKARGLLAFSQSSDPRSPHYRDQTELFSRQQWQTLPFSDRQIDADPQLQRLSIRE

[10] = target: T4, DNA dC->dU-editing enzyme APOBEC-3G; test: Dose Response confirmation of small molecule APOBEC3G DNA Deaminase Inhibitors via a fluorescence-based single-stranded DNA deaminase assay. [Related pubchem assays (depositor defined):AID493012, AID493028]; format: functional
[11] = target: T5, DNA dC->dU-editing enzyme APOBEC-3A; test: APOBEC3A DNA deaminase inhibitors, dose response, biochemical (AID 504722); format: functional
[12] = target: T7, Voltage-gated N-type calcium channel alpha-1B subunit/Amyloid beta A4 precursor protein-binding family A member 1 (Homo sapiens, UniProt Q00975+Q02410); test: disruptors of Mint-PDZ/N-type channel peptide interaction – biochemical, HTRF, set 2, SAR follow-up (AID 434980); format: functional
T7 sequence (Q00975 whole entry): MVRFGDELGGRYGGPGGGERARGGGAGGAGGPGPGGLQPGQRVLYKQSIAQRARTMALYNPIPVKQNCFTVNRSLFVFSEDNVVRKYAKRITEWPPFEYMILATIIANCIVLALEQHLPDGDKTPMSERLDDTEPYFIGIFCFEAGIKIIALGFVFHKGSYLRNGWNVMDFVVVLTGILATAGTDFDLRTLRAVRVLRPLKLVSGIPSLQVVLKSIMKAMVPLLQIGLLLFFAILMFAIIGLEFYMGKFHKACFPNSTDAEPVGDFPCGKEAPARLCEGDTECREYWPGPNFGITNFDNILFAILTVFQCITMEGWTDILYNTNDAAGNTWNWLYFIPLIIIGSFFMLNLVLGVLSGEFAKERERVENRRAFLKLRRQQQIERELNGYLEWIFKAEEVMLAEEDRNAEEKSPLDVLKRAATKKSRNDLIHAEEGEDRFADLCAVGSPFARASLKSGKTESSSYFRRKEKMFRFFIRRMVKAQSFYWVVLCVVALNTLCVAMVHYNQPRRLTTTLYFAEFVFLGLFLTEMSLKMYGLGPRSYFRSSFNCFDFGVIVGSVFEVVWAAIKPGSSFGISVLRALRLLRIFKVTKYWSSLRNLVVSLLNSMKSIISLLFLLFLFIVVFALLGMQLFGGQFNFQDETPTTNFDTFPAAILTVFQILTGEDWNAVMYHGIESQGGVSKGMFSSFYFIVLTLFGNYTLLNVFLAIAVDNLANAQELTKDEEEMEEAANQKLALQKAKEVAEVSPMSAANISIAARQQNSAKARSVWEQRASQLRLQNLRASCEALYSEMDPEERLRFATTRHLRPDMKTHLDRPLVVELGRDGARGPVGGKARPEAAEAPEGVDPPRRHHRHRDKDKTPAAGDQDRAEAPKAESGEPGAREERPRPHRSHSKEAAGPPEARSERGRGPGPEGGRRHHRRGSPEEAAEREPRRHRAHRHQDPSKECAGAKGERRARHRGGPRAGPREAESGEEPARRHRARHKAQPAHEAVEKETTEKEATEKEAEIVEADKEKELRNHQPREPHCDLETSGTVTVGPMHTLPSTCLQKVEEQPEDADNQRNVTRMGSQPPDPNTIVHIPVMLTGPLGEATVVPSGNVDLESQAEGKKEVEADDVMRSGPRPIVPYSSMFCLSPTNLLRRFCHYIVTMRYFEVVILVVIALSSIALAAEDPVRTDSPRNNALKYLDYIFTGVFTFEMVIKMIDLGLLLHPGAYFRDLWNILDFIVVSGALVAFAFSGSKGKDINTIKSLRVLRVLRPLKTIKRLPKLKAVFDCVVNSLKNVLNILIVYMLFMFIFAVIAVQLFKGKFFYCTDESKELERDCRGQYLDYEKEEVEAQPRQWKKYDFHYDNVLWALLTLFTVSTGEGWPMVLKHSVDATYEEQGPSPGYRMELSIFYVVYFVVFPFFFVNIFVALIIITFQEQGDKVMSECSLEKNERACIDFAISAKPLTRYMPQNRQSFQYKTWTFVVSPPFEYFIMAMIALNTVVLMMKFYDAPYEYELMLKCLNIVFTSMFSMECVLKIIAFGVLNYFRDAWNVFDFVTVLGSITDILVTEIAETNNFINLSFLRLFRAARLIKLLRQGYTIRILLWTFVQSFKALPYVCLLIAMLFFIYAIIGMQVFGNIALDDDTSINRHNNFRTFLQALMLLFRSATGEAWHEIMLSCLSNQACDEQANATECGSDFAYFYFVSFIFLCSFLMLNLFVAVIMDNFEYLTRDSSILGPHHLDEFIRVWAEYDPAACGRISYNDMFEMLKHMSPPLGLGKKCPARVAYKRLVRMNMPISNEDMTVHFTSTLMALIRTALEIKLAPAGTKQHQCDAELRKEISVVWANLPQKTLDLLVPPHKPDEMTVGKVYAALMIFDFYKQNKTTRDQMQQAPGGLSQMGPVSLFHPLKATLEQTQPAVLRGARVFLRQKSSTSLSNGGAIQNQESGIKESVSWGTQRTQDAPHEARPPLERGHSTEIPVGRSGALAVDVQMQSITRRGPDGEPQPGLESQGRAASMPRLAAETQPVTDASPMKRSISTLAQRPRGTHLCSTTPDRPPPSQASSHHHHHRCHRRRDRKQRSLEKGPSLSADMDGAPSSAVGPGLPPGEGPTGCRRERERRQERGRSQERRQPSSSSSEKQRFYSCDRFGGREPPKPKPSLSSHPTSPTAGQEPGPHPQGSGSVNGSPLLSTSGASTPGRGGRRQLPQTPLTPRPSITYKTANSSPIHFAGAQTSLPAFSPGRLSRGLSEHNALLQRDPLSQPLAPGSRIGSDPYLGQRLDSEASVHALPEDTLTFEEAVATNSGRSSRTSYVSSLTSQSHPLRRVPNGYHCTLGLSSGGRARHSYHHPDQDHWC
T7 sequence (Q02410 whole entry): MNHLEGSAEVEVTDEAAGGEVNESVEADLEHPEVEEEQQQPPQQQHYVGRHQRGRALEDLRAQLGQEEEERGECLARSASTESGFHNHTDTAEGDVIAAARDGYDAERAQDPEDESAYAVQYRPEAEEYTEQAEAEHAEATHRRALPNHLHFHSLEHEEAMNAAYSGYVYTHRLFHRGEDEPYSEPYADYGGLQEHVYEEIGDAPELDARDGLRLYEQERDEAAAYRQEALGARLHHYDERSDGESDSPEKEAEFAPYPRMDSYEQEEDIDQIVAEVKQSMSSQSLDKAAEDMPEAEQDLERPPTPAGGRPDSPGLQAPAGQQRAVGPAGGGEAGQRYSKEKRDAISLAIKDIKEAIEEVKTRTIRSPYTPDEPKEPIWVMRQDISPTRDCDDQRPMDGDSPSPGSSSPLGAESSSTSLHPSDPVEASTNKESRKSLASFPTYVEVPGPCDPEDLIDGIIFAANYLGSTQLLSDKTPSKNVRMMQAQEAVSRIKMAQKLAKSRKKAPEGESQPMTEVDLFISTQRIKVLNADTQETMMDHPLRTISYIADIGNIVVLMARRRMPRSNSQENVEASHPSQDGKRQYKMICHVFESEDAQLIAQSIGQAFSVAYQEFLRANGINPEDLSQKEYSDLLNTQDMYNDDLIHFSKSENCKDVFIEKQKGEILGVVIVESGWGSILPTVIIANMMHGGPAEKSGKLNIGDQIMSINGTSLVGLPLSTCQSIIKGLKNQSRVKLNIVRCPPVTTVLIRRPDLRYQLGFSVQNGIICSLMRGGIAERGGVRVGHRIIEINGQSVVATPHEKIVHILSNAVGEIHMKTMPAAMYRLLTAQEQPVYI

[13] = target: T7, Voltage-gated N-type calcium channel alpha-1B subunit/Amyloid beta A4 precursor protein-binding family A member 1; test: disruptors of Mint-PDZ/N-type channel peptide interaction – biochemical, HTRF, SAR follow-up (AID 2489); format: functional
[14] = target: T7, Voltage-gated N-type calcium channel alpha-1B subunit/Amyloid beta A4 precursor protein-binding family A member 1; format: protein assay
[15] = target: T7, Voltage-gated N-type calcium channel alpha-1B subunit/Amyloid beta A4 precursor protein-binding family A member 1; format: protein assay; remark: listed apart in the source
cells [16] = test: cells
[17] = target: Peroxisome proliferator-activated receptor gamma/Nuclear receptor coactivator 3 (Homo sapiens, UniProt P37231); format: functional;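 further: agonist potency for raising coactivator recruitment to the receptor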
[18] = target: Peroxisome proliferator-activated receptor gamma/Nuclear receptor coactivator 2 (Homo sapiens, UniProt P37231); format: functional;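 further: agonist potency for raising coactivator recruitment to the receptor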
[19] = target: T8, Heat shock factor protein 1 (Mus musculus, UniProt P38532); test: HSF1 potentiators in luciferase reporter cells, confirmation, cell-based, NIH3T3, luminescence, dose retest (AID 435004); format: functional;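 further: stress induced by proteasome inhibitor MG132 added 30 min after compound; luciferase reporter driven by HSF1 response element in NIH3T3 cells; actives raise luminescence as potentiators of the MG132 stress response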
T8 sequence (P38532 whole entry): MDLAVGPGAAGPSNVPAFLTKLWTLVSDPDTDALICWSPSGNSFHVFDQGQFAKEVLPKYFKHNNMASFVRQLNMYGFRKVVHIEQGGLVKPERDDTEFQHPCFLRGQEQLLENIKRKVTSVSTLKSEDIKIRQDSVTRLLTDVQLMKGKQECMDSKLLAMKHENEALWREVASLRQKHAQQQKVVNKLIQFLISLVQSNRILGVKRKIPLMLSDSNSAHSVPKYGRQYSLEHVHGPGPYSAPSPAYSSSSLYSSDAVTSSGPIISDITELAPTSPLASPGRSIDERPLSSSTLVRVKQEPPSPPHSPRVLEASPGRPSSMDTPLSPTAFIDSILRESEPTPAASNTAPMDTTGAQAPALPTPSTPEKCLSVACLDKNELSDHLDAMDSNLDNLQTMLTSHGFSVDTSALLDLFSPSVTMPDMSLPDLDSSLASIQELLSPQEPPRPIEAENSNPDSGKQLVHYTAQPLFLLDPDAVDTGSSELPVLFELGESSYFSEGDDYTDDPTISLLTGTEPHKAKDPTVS

[20] = target: Peroxisome proliferator-activated receptor gamma/Nuclear receptor coactivator 1 (Homo sapiens, UniProt P37231); format: functional;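 further: agonist potency as compounds enhance coactivator SRC-1 recruitment to PPARgamma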
[21] = target: Glucose-6-phosphate 1-dehydrogenase (Homo sapiens, UniProt P11413); test: human G6PD enzyme inhibitors, dose response, selectivity assay for P. falciparum G6PD inhibitor project, biochemical, fluorescence (AID 504792); format: functional
Glucose-6-phosphate 1-dehydrogenase, sequence (P11413 whole entry): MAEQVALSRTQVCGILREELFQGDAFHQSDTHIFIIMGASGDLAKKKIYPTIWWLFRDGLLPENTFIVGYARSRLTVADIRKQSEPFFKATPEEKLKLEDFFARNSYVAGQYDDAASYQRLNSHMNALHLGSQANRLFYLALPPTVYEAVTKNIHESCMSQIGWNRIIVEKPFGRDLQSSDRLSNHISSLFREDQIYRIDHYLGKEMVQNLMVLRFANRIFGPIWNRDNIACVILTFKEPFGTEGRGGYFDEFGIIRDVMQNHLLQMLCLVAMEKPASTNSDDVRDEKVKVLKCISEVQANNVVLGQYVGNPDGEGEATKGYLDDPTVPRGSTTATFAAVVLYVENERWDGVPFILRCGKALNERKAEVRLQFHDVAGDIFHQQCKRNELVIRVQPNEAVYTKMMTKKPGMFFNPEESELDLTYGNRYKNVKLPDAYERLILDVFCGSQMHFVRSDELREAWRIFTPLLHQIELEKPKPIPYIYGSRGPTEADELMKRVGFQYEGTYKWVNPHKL

[22] = THP-1 cell cytotoxicity, dose response, cytotoxicity control for Vif-APOBEC3G degradation inhibitor project, THP-1 cells (AID 1117359); format: functional; conditions: Human immunodeficiency virus 1, THP-1
[23] = target: Glyceraldehyde-3-phosphate dehydrogenase (Homo sapiens, UniProt P04406)
Glyceraldehyde-3-phosphate dehydrogenase, sequence (P04406 whole entry): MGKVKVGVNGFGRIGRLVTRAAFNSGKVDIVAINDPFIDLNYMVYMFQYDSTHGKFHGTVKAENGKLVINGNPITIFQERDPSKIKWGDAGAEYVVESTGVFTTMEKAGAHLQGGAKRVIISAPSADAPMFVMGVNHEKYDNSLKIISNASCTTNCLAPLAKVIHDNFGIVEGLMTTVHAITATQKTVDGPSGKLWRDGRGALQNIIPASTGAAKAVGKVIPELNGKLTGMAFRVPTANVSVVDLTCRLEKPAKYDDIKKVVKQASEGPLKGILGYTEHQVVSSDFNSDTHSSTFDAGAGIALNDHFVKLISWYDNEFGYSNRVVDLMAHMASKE

## COCCNC(=O)/C(C#N)=C/c1ccc(N2CCOCC2)o1
Leucine aminopeptidase
  IC50: 113 µM (active)
[1]
  EC50: > 100 µM (active)

## CC(C)CCCN1C(=O)NC(=O)/C(=C\c2ccc[nH]2)C1=O
[2]
  CC50: > 40 µM (active)
Cells [3]
  IC50: 1.22 µM (active)
[4]
  CC50: > 20 µM (active)

## CC1(C)C2CC[C@]3(C)C(CC=C4[C@@H]5C[C@@](C)(CO)[C@@H]6C[C@@]5(CC[C@]43C)C(=O)O6)[C@@]2(C)CC[C@@H]1O (stereo partly drawn)
[5]
  IC50: > 66.6 µM (inactive)
Beta-galactosidase
  IC50: > 66.6 µM (inactive)

## O=C(/C=C/c1cccnc1)c1ccc(F)c(F)c1
[6]
  EC50: 11.4 µM (active)

## COc1ccc2c(=O)n(-c3ccccc3)sc2c1
Hexokinase
  IC50: 3 µM (active)

## CCOc1ccc(CN2C(=O)c3ccccc3C2=O)cc1C(=O)NC1CC(C)(C)NC(C)(C)C1
[7]
  IC50: 3.18 µM (active)
[8]
  IC50: 2.87 µM (active)

## O=C(Nc1cc(Cl)ccc1C(=O)O)c1ccc(C2CC2)cc1
Hexokinase
  IC50: 5.77 µM (active)

## N#CC(Sc1ccccn1)c1ccc(Cl)cc1 (stereo not drawn)
[9]
  AC50: 7.09 µM (active)

## Cc1ccsc1/C=N/n1c(S)nnc1-c1ccccn1
[10]
  IC50: 4.89 µM (active)
[11]
  IC50: > 100 µM (inactive)

## Cc1cccc(N2C(=O)C3C(C2=O)C2(C)C=CC3(C)O2)c1 (stereo not drawn)
[12]
  IC50: 8.93 µM (active)
[13]
  IC50: 27.6 µM (active)

## CC(C)NC(=O)COC(=O)/C=C/c1ccco1
[14]
  IC50: 9.71 µM (active)
[15]
  IC50: > 50 µM (inactive)

## COc1ccc(NC2c3ncccc3C(=O)N2Cc2cccs2)cc1 (stereo not drawn)
Cells [16]
  IC50: 45.6 µM (active)

## N#Cc1ccc(-c2ccc(Cl)cc2)nc1Oc1ccc(F)cc1
[17]
  EC50: > 79.4 µM (not active)
[18]
  EC50: > 79.4 µM (not active)
[19]
  EC50: > 260 µM (inconclusive)
[20]
  EC50: > 79.4 µM (not active)

## Oc1ccc(NCc2ccccc2OCc2ccccc2)cc1
[17]
  EC50: > 79.4 µM (not active)
[18]
  EC50: > 79.4 µM (not active)
[21]
  IC50: > 80 µM (inactive)
[22]
  CC50: 22.7 µM (active)
[20]
  EC50: > 79.4 µM (not active)

## CCCCCCCC(=O)Nc1cc(Cl)ccc1C(=O)O
Hexokinase
  IC50: > 25 µM (inactive)

## CCN1CCN(C2=C(Cl)C(=O)N(c3cccc(C(F)(F)F)c3)C2=O)CC1
[23]
  IC50: > 50 µM (inconclusive)

## COc1ccc(/N=C(\C)C2=C(O)SCC2=O)cc1
[9]
  AC50: 12.4 µM (active)

## CC(=O)Oc1ccc(N2C(=O)C3C4C=CC(O4)C3C2=O)cc1 (stereo not drawn)
[12]
  IC50: 18.8 µM (active)
[13]
  IC50: > 56.8 µM (inactive)

## Cc1cc(C)cc(N2CC(c3nc4ccccc4n3C)CC2=O)c1 (stereo not drawn)
[7]
  IC50: 16.1 µM (active)
[8]
  IC50: 9.16 µM (active)

## Cc1ccc(-n2c(=O)c3sccc3n(Cc3cc(=O)n4ccccc4n3)c2=O)cc1
Cells [16]
  IC50: 26.4 µM (active)

## COc1cc(C)c(C)cc1S(=O)(=O)Nc1cccnc1
[23]
  IC50: > 100 µM (not active)

## O=C(NCCCN1CCOCC1)c1sc2cc([N+](=O)[O-])ccc2c1Cl
[21]
  IC50: > 80 µM (inactive)
[10]
  IC50: 6.34 µM (active)
[11]
  IC50: > 100 µM (inactive)

## CCN1CCN(c2ccc(NC(=O)c3ccc4c(c3)OCCO4)cc2C)CC1
[7]
  IC50: 4.12 µM (active)
[8]
  IC50: 4.49 µM (active)

Source: ChEMBL document CHEMBL1201862, “PubChem BioAssay data set” (2004)
